# Experimental data published in article PMC10508264, “Exploring the antioxidant, antimicrobial, cytotoxic and biothermodynamic properties of novel morpholine derivative bioactive Mn(II), Co(II) and Ni(II) complexes – combined experimental and theoretical measurements towards DNA/BSA/SARS-CoV-2 3CL^Pro” (RSC Medicinal Chemistry, 2023).
# Values joined by “and” are separate entries in the source; they are usually repeats but may differ in a detail not shown here. Equal values may be shown once.
# Columns and labels:
# Aspergillus niger = test: Agar disc diffusion, strain H; type: cell-based; parameters: Inhibition%: concentration or dose not given beside the values; settings: for Diameter of clear zone inhibition: control 6 mm
# [1] = DPPH radical scavenging assay; type: biochemical; settings: for % Inhibition, DPPH: 517 nm
# HepG2 = test: MTT cell viability assay, HepG2; type: cell-based, human; settings: HepG2, 72 h of exposure
# Shigella flexneri = test: Agar disc diffusion, strain E; type: cell-based; parameters: Inhibition%: concentration or dose not given beside the values; settings: for Diameter of clear zone inhibition: control 6 mm
# BSA [2] = molecular target: T1, BSA (Bos taurus, UniProt P02769); type: binding, bovine; settings: for Δλ (nm), blue shift of BSA band: 25 μM BSA, compound 0–25 μM; for Binding constant Kapp by BH method (Kb, BSA): 25 °C; for Gibb's free energy change of BSA binding: T = 298 K
# BSA [3] = molecular target: T1, BSA; test: BSA fluorescence quenching titration; type: binding, bovine; settings: for Gibb's free energy change (SV method II), BSA: T = 298 K; for Kq (SV method I), BSA: τ0 = 10^−8 s; for P, ratio of fluorescence quantum efficiency, BSA: F/F0 vs 1/[BSA]
# Method: Titrations were performed for all tested compounds (1–200 μM) with pre-incubated EB-bound DNA and the intensity variations between 510 nm and 610 nm were carefully monitored in the presence and absence of DNA (200 μM) during the initial emission and excitation by EB.[31]
# Fluorescence emission spectral titration is an efficient approach to evaluating the binding properties of DNA/BSA biomolecules. In general, the fluorescence of EB is quite weak in aqueous solution, but when it is bound to DNA, the fluorescence intensity rises. However, it is a well-known imperative intercalator and is more supportive in distinguishing the binding strength of non-fluorescence test substances. Also, the fluorescence emission spectra of the EB–DNA adduct were examined at 610 nm in the absence and presence of rising quantities of each test compound. When the complex concentration (0–240 μM) rises, the fluorescence intensity of the EB-bound DNA complex diminishes owing to the displacement of EB from CT-DNA. A notable reduction in the fluorescence emission intensity at 610 nm is observed (Fig. S26 ^† and Table 4). The photoelectron shift from DNA's guanine base to the excited states may be the cause of the frequency quenching in the emission of the test substance by DNA. […] Therefore, the competitive binding experiment can make use of EB as a fluorescent probe. […] This is further evidence that complexes (1–3) strongly bind intercalatively with DNA. The observed results agree well with the data from electronic absorption spectral measurements. Additionally, the experiment was extended to examine the binding properties between the test substance and BSA. BSA mostly contains three amino acid residues (tyrosine, tryptophan, and phenylalanine), which give it its inherent fluorescence. […] These two residues also have minimal quenching effects. Tryptophan in BSA fluoresces mostly because of a residue that is trapped inside a hydrophobic cavity. Therefore, it is crucial to model potential binding interactions with the metal complexes. […] The fluorescence intensity also reduces while the test substances (1–3) are steadily blended with the BSA solution, proving that complexes (1–3) interact with BSA via altering the protein's secondary structure, which also leads to an alteration in the tryptophan environment of BSA (Fig. S27 ^†). Furthermore, BSA structural similarities share 76% sequence identity with human serum albumin (HSA), the most prevalent protein in blood plasma that transports ions and proteins to cells and tissues. HSA is able to readily crystallize under the trivalent cations, but BSA has no ready crystallizing property. However, they consist of parallel physicochemical properties to each other.[74,75] Additionally, the Stern–Volmer eqn (12) and (13) were employed to analyze the data (Fig. S28 ^† and Table 4). Additionally, the kq values for DNA and BSA binding were acquired in the range of 1.1636–2.8863 × 10^12 and 2.6390–7.0774 × 10^12 mol^−1 s^−1, respectively. They are also much greater than the collision quenching constant value (2.0 × 10^10 mol^−1 s^−1). Therefore, it is assumed that the static quenching process was brought on by adduct construction between the test compounds and BSA rather than a dynamic collision. However, fluorescence spectroscopy is generally plagued by the inner filter effect (IFE), disturbing spectral analysis. The energizing ray is attenuated due to the highly concentrated solution sample. As a result, strong fluorescence is only seen on surfaces facing the excitation beam.
# MCF-7 = test: MTT cell viability assay, MCF-7; type: cell-based, human; settings: MCF-7, 72 h of exposure
# [4] = Nitric oxide scavenging assay; type: biochemical; settings: 546 nm
# Mucor indicus = test: Agar disc diffusion, strain J; type: cell-based; parameters: Inhibition%: concentration or dose not given beside the values; settings: for Diameter of clear zone inhibition: control 6 mm
# Escherichia coli = test: Agar disc diffusion, strain A; type: cell-based; parameters: Inhibition%: concentration or dose not given beside the values; settings: for Diameter of clear zone inhibition: control (DMSO) 6 mm
smiles,measurement,setting,value
[Mn+2].[O-]c1ccccc1N=Cc1ccc(N2CCOCC2)cc1.[O-]c1ccccc1N=Cc1ccc(N2CCOCC2)cc1.c1ccc(-c2ccccn2)nc1 [(1)],Inhibition%,Aspergillus niger,50%
same,Diameter of clear zone inhibition,Aspergillus niger,12 mm
same,"% Inhibition, DPPH",[1]; 40 µM,11.16%
same,"% Inhibition, DPPH",[1]; 80 µM,18.62%
same,"% Inhibition, DPPH",[1]; 120 µM,30.41%
same,"% Inhibition, DPPH",[1]; 160 µM,37.32%
same,"% Inhibition, DPPH",[1]; 200 µM,42.47%
same,"% Inhibition, DPPH",[1]; 240 µM,62.23% and 58.05%
same,IC50,HepG2,36 ± 1.8 µM
same,Inhibition%,Shigella flexneri,40%
same,Diameter of clear zone inhibition,Shigella flexneri,10 mm
same,"Δλ (nm), blue shift of BSA band",BSA [2],03 nm
same,"Binding constant Kapp by BH method (Kb, BSA)",BSA [2],12429 M⁻¹
same,Gibb's free energy change of BSA binding,BSA [2],-5.5827 kcal/mol
same,"KSV (SV method I), BSA",BSA [3],46510 M⁻¹
same,"Kass (SV method II), BSA",BSA [3],20050 M⁻¹
same,"n, number of binding sites (SV method II), BSA",BSA [3],0.954
same,"Gibb's free energy change (SV method II), BSA",BSA [3],-24.5 kJ/M
same,"Kq (SV method I), BSA",BSA [3],4.651e+12 M⁻¹ s⁻¹
same,"P, ratio of fluorescence quantum efficiency, BSA",BSA [3],0.287
same,IC50,MCF-7,36.6 ± 1.8 µM
same,"% Inhibition, nitric oxide",[4]; 40 µM,13.14%
same,"% Inhibition, nitric oxide",[4]; 80 µM,22.48%
same,"% Inhibition, nitric oxide",[4]; 120 µM,28.54%
same,"% Inhibition, nitric oxide",[4]; 160 µM,36.64%
same,"% Inhibition, nitric oxide",[4]; 200 µM,44.75%
same,"% Inhibition, nitric oxide",[4]; 240 µM,56.69%
same,Inhibition%,Mucor indicus,45%
same,Diameter of clear zone inhibition,Mucor indicus,11 mm
same,Inhibition%,Escherichia coli,40%
same,Diameter of clear zone inhibition,Escherichia coli,10 mm
[Co+2].[O-]c1ccccc1N=Cc1ccc(N2CCOCC2)cc1.[O-]c1ccccc1N=Cc1ccc(N2CCOCC2)cc1.c1ccc(-c2ccccn2)nc1 [(2)],Inhibition%,Aspergillus niger,50%
same,Diameter of clear zone inhibition,Aspergillus niger,12 mm
same,IC50,[1],200 µM
same,"% Inhibition, DPPH",[1]; 40 µM,14.20%
same,"% Inhibition, DPPH",[1]; 80 µM,26.76%
same,"% Inhibition, DPPH",[1]; 120 µM,31.64%
same,"% Inhibition, DPPH",[1]; 160 µM,45.67%
same,"% Inhibition, DPPH",[1]; 200 µM,52.54%
same,"% Inhibition, DPPH",[1]; 240 µM,62.23%
same,IC50,HepG2,35.9 ± 1.8 µM
same,Inhibition%,Shigella flexneri,33%
same,Diameter of clear zone inhibition,Shigella flexneri,09 mm
same,"Δλ (nm), blue shift of BSA band",BSA [2],02 nm
same,"Binding constant Kapp by BH method (Kb, BSA)",BSA [2],30937 M⁻¹
same,Gibb's free energy change of BSA binding,BSA [2],-6.12271 kcal/mol
same,"KSV (SV method I), BSA",BSA [3],70740 M⁻¹
same,"Kass (SV method II), BSA",BSA [3],54550 M⁻¹
same,"n, number of binding sites (SV method II), BSA",BSA [3],1.018
same,"Gibb's free energy change (SV method II), BSA",BSA [3],-27.0 kJ/M
same,"Kq (SV method I), BSA",BSA [3],7.074e+12 M⁻¹ s⁻¹
same,"P, ratio of fluorescence quantum efficiency, BSA",BSA [3],0.385
same,IC50,MCF-7,35.9 ± 1.8 µM
same,"% Inhibition, nitric oxide",[4]; 40 µM,14.72%
same,"% Inhibition, nitric oxide",[4]; 80 µM,23.62%
same,"% Inhibition, nitric oxide",[4]; 120 µM,31.21%
same,"% Inhibition, nitric oxide",[4]; 160 µM,39.12%
same,"% Inhibition, nitric oxide",[4]; 200 µM,46.06%
same,"% Inhibition, nitric oxide",[4]; 240 µM,61.34%
same,Inhibition%,Mucor indicus,45%
same,Diameter of clear zone inhibition,Mucor indicus,11 mm
same,Inhibition%,Escherichia coli,40%
same,Diameter of clear zone inhibition,Escherichia coli,10 mm
[Ni+2].[O-]c1ccccc1N=Cc1ccc(N2CCOCC2)cc1.[O-]c1ccccc1N=Cc1ccc(N2CCOCC2)cc1.c1ccc(-c2ccccn2)nc1 [(3)],Inhibition%,Aspergillus niger,50%
same,Diameter of clear zone inhibition,Aspergillus niger,12 mm
same,"% Inhibition, DPPH",[1]; 40 µM,13.08%
same,"% Inhibition, DPPH",[1]; 80 µM,24.74%
same,"% Inhibition, DPPH",[1]; 120 µM,30.86%
same,"% Inhibition, DPPH",[1]; 160 µM,41.06%
same,"% Inhibition, DPPH",[1]; 200 µM,49.83%
same,"% Inhibition, DPPH",[1]; 240 µM,60.02%
same,IC50,HepG2,33.6 ± 1.7 µM
same,Inhibition%,Shigella flexneri,54%
same,Diameter of clear zone inhibition,Shigella flexneri,13 mm
same,"Δλ (nm), blue shift of BSA band",BSA [2],02 nm
same,"Binding constant Kapp by BH method (Kb, BSA)",BSA [2],18374 M⁻¹
same,Gibb's free energy change of BSA binding,BSA [2],-5.81417 kcal/mol
same,"KSV (SV method I), BSA",BSA [3],48060 M⁻¹
same,"Kass (SV method II), BSA",BSA [3],52920 M⁻¹
same,"n, number of binding sites (SV method II), BSA",BSA [3],1.051
same,"Gibb's free energy change (SV method II), BSA",BSA [3],-26.9 kJ/M
same,"Kq (SV method I), BSA",BSA [3],4.8055e+12 M⁻¹ s⁻¹
same,"P, ratio of fluorescence quantum efficiency, BSA",BSA [3],0.348
same,IC50,MCF-7,34.5 ± 1.7 µM
same,"% Inhibition, nitric oxide",[4]; 40 µM,14.72%
same,"% Inhibition, nitric oxide",[4]; 80 µM,23.28%
same,"% Inhibition, nitric oxide",[4]; 120 µM,29.66%
same,"% Inhibition, nitric oxide",[4]; 160 µM,38.63%
same,"% Inhibition, nitric oxide",[4]; 200 µM,45.60%
same,"% Inhibition, nitric oxide",[4]; 240 µM,59.65%
same,Inhibition%,Mucor indicus,54%
same,Diameter of clear zone inhibition,Mucor indicus,13 mm
same,Inhibition%,Escherichia coli,50%
same,Diameter of clear zone inhibition,Escherichia coli,12 mm
"Oc1ccccc1N=Cc1ccc(N2CCOCC2)cc1 [(HL), 2-(4-morpholinobenzylideneamino)phenol]",Inhibition%,Aspergillus niger,40%
same,Diameter of clear zone inhibition,Aspergillus niger,10 mm
same,"% Inhibition, DPPH",[1]; 40 µM,09.45%
same,"% Inhibition, DPPH",[1]; 80 µM,15.21%
same,"% Inhibition, DPPH",[1]; 120 µM,26.36%
same,"% Inhibition, DPPH",[1]; 160 µM,34.56%
same,"% Inhibition, DPPH",[1]; 200 µM,39.41%
same,"% Inhibition, DPPH",[1]; 240 µM,52.45%
same,IC50,HepG2; Homo sapiens,108 ± 5.4 µM
same,Inhibition%,Shigella flexneri,57%
same,Diameter of clear zone inhibition,Shigella flexneri,14 mm
same,"Δλ (nm), blue shift of BSA band",BSA [2],02 nm
same,"Binding constant Kapp by BH method (Kb, BSA)",BSA [2],7556 M⁻¹
same,Gibb's free energy change of BSA binding,BSA [2],-5.28791 kcal/mol
same,"KSV (SV method I), BSA",BSA [3],26390 M⁻¹
same,"Kass (SV method II), BSA",BSA [3],10620 M⁻¹
same,"n, number of binding sites (SV method II), BSA",BSA [3],0.926
same,"Gibb's free energy change (SV method II), BSA",BSA [3],-23.0 kJ/M
same,"Kq (SV method I), BSA",BSA [3],2.639e+12 M⁻¹ s⁻¹
same,"P, ratio of fluorescence quantum efficiency, BSA",BSA [3],0.464
same,IC50,"MCF-7; Homo sapiens, MCF7",105 ± 5.3 µM
same,"% Inhibition, nitric oxide",[4]; 40 µM,11.42%
same,"% Inhibition, nitric oxide",[4]; 80 µM,18.26%
same,"% Inhibition, nitric oxide",[4]; 120 µM,24.28%
same,"% Inhibition, nitric oxide",[4]; 160 µM,33.21%
same,"% Inhibition, nitric oxide",[4]; 200 µM,40.53%
same,"% Inhibition, nitric oxide",[4]; 240 µM,51.62%
same,Inhibition%,Mucor indicus,45%
same,Diameter of clear zone inhibition,Mucor indicus,11 mm
same,Inhibition%,Escherichia coli,33%
same,Diameter of clear zone inhibition,Escherichia coli,09 mm
